Experiments:
JAK2 = target: T1, JAK2 (Homo sapiens, UniProt O60674); test: Kinobeads assay, JAK2 (competition binding in mixed Molt4/Ramos cell lysate, dot blot detection); settings: read-out: JAK2 Band (Kinobeads assay potency, IC50)
T1 construct: endogenous in cells; host or cells: Molt4 (ATCC CRL-1582) and Ramos (ATCC CRL-1596), mixed lysate 1:2
Outline: (§1)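 JAK2 and TYK2 retained on Kinobeads (immobilized aminopyrido-pyrimidine ligand) from 1:2 Molt4:Ramos lysate (10 mg/mL) were quantified by antibody dot blot (Odyssey infrared) after 3 h cold incubation with compound. Nine-step 1:3 dilution series; IC50 calculated from curves.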

TYK2 = target: T2, TYK2 (Homo sapiens, UniProt P29597); test: Kinobeads assay, TYK2 (competition binding in mixed Molt4/Ramos cell lysate, dot blot detection); settings: Kinobeads assay, Molt4/Ramos lysate; read-out: TYK2 Band (Kinobeads assay potency, IC50)
T2 construct: endogenous in cells; host or cells: Molt4 (ATCC CRL-1582) and Ramos (ATCC CRL-1596), mixed lysate 1:2
T2 sequence (P29597 whole entry): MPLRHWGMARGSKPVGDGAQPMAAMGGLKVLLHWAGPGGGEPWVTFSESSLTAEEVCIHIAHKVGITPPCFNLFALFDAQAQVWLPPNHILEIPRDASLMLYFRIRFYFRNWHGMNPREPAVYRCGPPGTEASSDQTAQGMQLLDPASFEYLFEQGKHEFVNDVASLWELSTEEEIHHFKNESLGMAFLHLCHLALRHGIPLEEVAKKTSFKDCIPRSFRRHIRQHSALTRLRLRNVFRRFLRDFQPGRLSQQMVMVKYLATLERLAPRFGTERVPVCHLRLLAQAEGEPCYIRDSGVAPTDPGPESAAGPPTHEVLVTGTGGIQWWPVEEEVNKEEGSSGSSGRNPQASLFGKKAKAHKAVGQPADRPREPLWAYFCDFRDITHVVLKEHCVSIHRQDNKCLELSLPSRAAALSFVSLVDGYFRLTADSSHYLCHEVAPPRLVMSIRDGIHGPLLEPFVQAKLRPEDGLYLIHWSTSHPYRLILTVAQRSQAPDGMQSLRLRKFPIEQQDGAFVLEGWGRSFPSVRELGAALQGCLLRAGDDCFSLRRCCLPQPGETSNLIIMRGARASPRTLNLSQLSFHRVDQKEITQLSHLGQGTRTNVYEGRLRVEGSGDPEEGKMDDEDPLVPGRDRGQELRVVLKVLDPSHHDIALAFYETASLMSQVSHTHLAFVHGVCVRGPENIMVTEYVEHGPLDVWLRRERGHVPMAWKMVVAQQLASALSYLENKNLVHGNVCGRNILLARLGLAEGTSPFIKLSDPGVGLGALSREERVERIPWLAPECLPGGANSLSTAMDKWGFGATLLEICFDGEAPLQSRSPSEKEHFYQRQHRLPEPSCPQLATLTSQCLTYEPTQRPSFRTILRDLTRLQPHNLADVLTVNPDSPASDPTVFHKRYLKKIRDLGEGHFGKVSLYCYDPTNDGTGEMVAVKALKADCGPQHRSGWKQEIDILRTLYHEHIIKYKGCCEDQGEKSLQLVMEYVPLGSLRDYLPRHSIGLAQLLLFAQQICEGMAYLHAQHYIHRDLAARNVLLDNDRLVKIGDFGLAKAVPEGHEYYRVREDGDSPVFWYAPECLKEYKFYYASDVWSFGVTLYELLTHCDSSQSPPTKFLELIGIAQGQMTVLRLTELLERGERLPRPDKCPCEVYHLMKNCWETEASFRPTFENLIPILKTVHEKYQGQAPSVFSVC
Outline: as §1

T1 sequence (O60674 whole entry): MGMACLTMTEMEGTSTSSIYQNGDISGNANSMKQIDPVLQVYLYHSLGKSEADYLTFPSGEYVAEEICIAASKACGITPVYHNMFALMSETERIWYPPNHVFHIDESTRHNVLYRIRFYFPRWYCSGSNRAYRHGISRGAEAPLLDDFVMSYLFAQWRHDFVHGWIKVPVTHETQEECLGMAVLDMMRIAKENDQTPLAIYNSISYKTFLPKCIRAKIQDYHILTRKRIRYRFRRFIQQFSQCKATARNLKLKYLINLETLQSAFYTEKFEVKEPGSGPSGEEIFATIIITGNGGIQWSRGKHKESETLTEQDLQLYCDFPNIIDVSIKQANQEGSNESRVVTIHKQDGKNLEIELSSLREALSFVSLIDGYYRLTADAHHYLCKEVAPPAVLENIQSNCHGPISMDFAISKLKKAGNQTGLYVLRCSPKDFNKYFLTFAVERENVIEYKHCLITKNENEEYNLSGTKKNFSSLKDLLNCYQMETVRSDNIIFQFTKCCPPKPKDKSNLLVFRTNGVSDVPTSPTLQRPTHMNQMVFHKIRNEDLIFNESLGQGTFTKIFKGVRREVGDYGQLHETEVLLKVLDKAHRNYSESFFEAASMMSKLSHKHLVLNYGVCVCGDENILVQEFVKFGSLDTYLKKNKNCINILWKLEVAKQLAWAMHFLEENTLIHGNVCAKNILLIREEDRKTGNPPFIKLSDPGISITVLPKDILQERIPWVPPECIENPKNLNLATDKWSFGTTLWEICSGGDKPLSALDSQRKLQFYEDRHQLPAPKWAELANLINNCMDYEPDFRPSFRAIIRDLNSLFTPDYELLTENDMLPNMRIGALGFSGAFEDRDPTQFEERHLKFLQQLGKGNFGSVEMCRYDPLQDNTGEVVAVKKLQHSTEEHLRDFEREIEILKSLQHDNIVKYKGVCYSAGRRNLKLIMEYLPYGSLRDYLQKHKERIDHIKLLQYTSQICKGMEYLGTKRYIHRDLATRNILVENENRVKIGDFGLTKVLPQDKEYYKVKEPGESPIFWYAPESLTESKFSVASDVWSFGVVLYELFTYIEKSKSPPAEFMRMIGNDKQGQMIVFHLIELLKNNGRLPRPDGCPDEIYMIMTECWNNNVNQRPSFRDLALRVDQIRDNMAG

Row | SMILES | IC50 (JAK2) | IC50 (TYK2)
1 | Cc1cnc(Nc2cnn(C)c2)nc1NCc1cccc(CNS(C)(=O)=O)c1 [Example I-402] | 1000 to 10000 nM | 100 to 1000 nM
2 | C[C@@H](CO)NC(=O)Cn1cc(Nc2nccc(NCc3c(F)cccc3F)n2)cn1 [Example I-151] | 1000 to 10000 nM | 10 to 100 nM
3 | O=C(Cn1cc(Nc2nccc(NCc3c(F)cc(F)cc3F)n2)cn1)N[C@@H]1C[C@@H]1F [Example I-102] | 1000 to 10000 nM | ≤ 10 nM
4 | NS(=O)(=O)c1ccc(CNc2nc(Nc3cnn(CC(=O)N4CCOCC4)c3)ncc2F)cc1 [Example I-11] | > 10000 nM | 10 to 100 nM
5 | Cn1cc(Nc2ncc(Cl)c(NCc3c(F)cccc3F)n2)cn1 [Example I-175] | 1000 to 10000 nM | 10 to 100 nM
6 | Fc1cc(F)c(CNc2nc(Nc3cn[nH]c3)ncc2Cl)c(F)c1 [Example I-372] | 1000 to 10000 nM | 10 to 100 nM
7 | CN(C)C(=O)Cn1cc(Nc2ncc(Cl)c(NCc3ccccc3S(C)(=O)=O)n2)cn1 [Example I-452] | 100 to 1000 nM | 100 to 1000 nM
8 | CC(C#N)NC(=O)Cn1cc(Nc2nccc(NCc3c(F)cc(F)cc3F)n2)cn1 (stereo not drawn) [Example I-5, N-(1-cyanoethyl)-2-(4-((4-((2,4,6-trifluorobenzyl)amino)pyrimidin-2-yl)amino)-1H-pyrazol-1-yl)acetamide] | > 10000 nM | 10 to 100 nM
9 | COc1cc(F)c(CNc2nc(Nc3cnn(CC(=O)NC(C)C)c3)ncc2F)c(F)c1 [Example I-70] | > 10000 nM | 10 to 100 nM
10 | CCOc1ccc(F)c(CNc2nc(Nc3cnn(CC(=O)N(C)C)c3)ncc2Cl)c1F [Example I-268] | 1000 to 10000 nM | 10 to 100 nM
11 | NS(=O)(=O)c1cc(F)c(CNc2nc(Nc3cnn(CC(=O)N4CCCCC4)c3)ncc2F)c(F)c1 [Example I-31] | 1000 to 10000 nM | 10 to 100 nM
12 | N#C[C@H]1CCN(C(=O)Cn2cc(Nc3ncc(Cl)c(NCc4ccccc4)n3)cn2)C1 [Example I-270] | 1000 to 10000 nM | 10 to 100 nM
13 | O=C(Cn1cc(Nc2nccc(NCc3c(F)cccc3Cl)n2)cn1)NC1CC1 [Example I-139] | 1000 to 10000 nM | ≤ 10 nM
14 | O=C(Cn1cc(Nc2ncc(F)c(NCc3c(F)cc(F)cc3F)n2)cn1)NC1CCC1 [Example I-308] | > 10000 nM | 10 to 100 nM
15 | COc1c(F)cc(F)cc1CNc1nc(Nc2cnn(CC(=O)NC3CC3)c2)ncc1C [Example I-345] | 100 to 1000 nM | 10 to 100 nM
16 | CN(C)C(=O)Cn1cc(Nc2ncc(F)c(NCc3c(F)cccc3F)n2)cn1 [Example I-382] | 1000 to 10000 nM | 10 to 100 nM
17 | COC[C@H](C)NC(=O)Cn1cc(Nc2ncc(F)c(NCc3c(F)cc(F)cc3F)n2)cn1 [Example I-71] | > 10000 nM | 10 to 100 nM
18 | CC(O)Cn1cc(Nc2ncc(Cl)c(NCc3ccccc3F)n2)cn1 (stereo not drawn) [Example I-213] | 100 to 1000 nM | 100 to 1000 nM
19 | CN(C)C(=O)Cn1cc(Nc2ncc(Cl)c(NCc3cccc(CNS(C)(=O)=O)c3)n2)cn1 [Example I-416] | 100 to 1000 nM | 100 to 1000 nM
20 | Cn1cc(Nc2nccc(NCc3c(Cl)ccc(Cl)c3F)n2)cn1 [Example I-60] | 100 to 1000 nM | 10 to 100 nM
21 | Cn1cc(Nc2nccc(NCc3c(F)ccc(C#N)c3F)n2)cn1 [Example I-135] | 1000 to 10000 nM | 10 to 100 nM
22 | O=C(Cn1cc(Nc2nccc(NCc3c(F)cc(F)cc3F)n2)cn1)NCC(F)F [Example I-92] | 1000 to 10000 nM | 10 to 100 nM

Row | SMILES | IC50 (JAK2) | IC50 (TYK2)
23 | CNC(=O)Cn1cc(Nc2ncc(Cl)c(NCc3cc(S(C)(=O)=O)ccc3OC)n2)cn1 [Example I-444] | 100 to 1000 nM | 10 to 100 nM
24 | NC(=O)Cn1cc(Nc2ncc(Cl)c(NCc3c(Cl)cccc3Cl)n2)cn1 [Example I-324] | 100 to 1000 nM | 10 to 100 nM
25 | CC(C)NC(=O)Cn1cc(Nc2nccc(NCc3c(Cl)cccc3Cl)n2)cn1 [Example I-76] | > 10000 nM | 10 to 100 nM
26 | Fc1cccc(F)c1CNc1nc(Nc2cnn(C(F)F)c2)ncc1Cl [Example I-224] | 1000 to 10000 nM | 100 to 1000 nM
27 | COc1ccc(F)c(CNc2ccnc(Nc3cnn(CC(=O)NCC(F)F)c3)n2)c1F [Example I-127] | 1000 to 10000 nM | 10 to 100 nM
28 | Fc1cccc(CNc2nc(Nc3cn[nH]c3)ncc2Cl)c1 [Example I-370] | 100 to 1000 nM | 100 to 1000 nM
29 | COc1ccc(F)c(CNc2nc(Nc3cnn(CC(=O)N4CCOCC4)c3)ncc2C)c1F [Example I-22] | 100 to 1000 nM | ≤ 10 nM
30 | O=C(Cn1cc(Nc2ncc(Cl)c(NCc3ccccc3)n2)cn1)N1CCOCC1 [Example I-160] | 1000 to 10000 nM | 10 to 100 nM
31 | NC(=O)Cn1cc(Nc2ncc(Cl)c(NCc3c(F)cc(F)cc3F)n2)cn1 [Example I-387] | 1000 to 10000 nM | 10 to 100 nM
32 | OCCn1cc(Nc2ncc(Cl)c(NCc3ccccc3C(F)(F)F)n2)cn1 [Example I-191] | 1000 to 10000 nM | 100 to 1000 nM
33 | Cc1ccc(F)c(CNc2nc(Nc3cn[nH]c3)ncc2Cl)c1F [Example I-371] | 1000 to 10000 nM | 10 to 100 nM
34 | C[C@H]1COCCN1C(=O)Cn1cc(Nc2nccc(NCc3c(F)cc(F)cc3F)n2)cn1 [Example I-52] | 1000 to 10000 nM | 10 to 100 nM
35 | O=C(O)Cn1cc(Nc2ncc(Cl)c(NCc3c(F)cccc3F)n2)cn1 [Example I-165] | 1000 to 10000 nM | 10 to 100 nM
36 | Fc1cccc(CNc2nc(Nc3cn[nH]c3)ncc2Cl)c1C(F)(F)F [Example I-136] | 100 to 1000 nM | 10 to 100 nM
37 | Cc1cnc(Nc2cnn(CC(=O)N(C)C)c2)nc1NCc1c(F)cccc1F [Example I-299] | 100 to 1000 nM | ≤ 10 nM
38 | O=C(Cn1cc(Nc2ncc(F)c(NCc3cc(F)cc(C(F)(F)F)c3)n2)cn1)N1CCOCC1 [Example I-332] | 1000 to 10000 nM | 100 to 1000 nM
39 | Cn1cc(Nc2ncc(Cl)c(NCc3cccc(Br)c3)n2)cn1 [Example I-163] | 1000 to 10000 nM | 100 to 1000 nM
40 | COc1ccc(F)c(CNc2nc(Nc3cnn(CC(=O)N(C)C)c3)ncc2F)c1F [Example I-13] | 1000 to 10000 nM | ≤ 10 nM
41 | CCOC(=O)Cn1cc(Nc2ncc(F)c(NCc3c(F)ccc(OC)c3F)n2)cn1 [Example I-53] | 1000 to 10000 nM | 10 to 100 nM
42 | CN(C)C(=O)Cn1cc(Nc2ncc(Cl)c(NCc3c(Cl)cccc3Cl)n2)cn1 [Example I-326] | 100 to 1000 nM | 10 to 100 nM
43 | COc1ccc(Cl)c(CNc2ccnc(Nc3cnn(CC(=O)N[C@H](C)CO)c3)n2)c1F [Example I-123] | 100 to 1000 nM | ≤ 10 nM
44 | CNS(=O)(=O)c1ccccc1CNc1nc(Nc2cnn(CCO)c2)ncc1Cl [Example I-472] | 100 to 1000 nM | 10 to 100 nM

Row | SMILES | IC50 (JAK2) | IC50 (TYK2)
45 | CNC(=O)Cn1cc(Nc2ncc(C)c(NCc3cc(F)cc(F)c3)n2)cn1 [Example I-354] | 100 to 1000 nM | 100 to 1000 nM
46 | COc1ccccc1CNc1nc(Nc2cnn(CC(N)=O)c2)ncc1Cl [Example I-321] | 1000 to 10000 nM | 100 to 1000 nM
47 | Cc1cnc(Nc2cnn(CC(=O)N[C@H](C)CO)c2)nc1NCc1c(F)cc(F)cc1F [Example I-35] | 100 to 1000 nM | ≤ 10 nM
48 | Cn1cc(Nc2ncc(Cl)c(NCc3c(F)cccc3C(F)(F)F)n2)cn1 [Example I-118] | 1000 to 10000 nM | 10 to 100 nM
49 | CC1(C)CN(C(=O)Cn2cc(Nc3nccc(NCc4c(F)cc(F)cc4F)n3)cn2)C1 [Example I-458] | > 10000 nM | 10 to 100 nM
50 | Cc1cnc(Nc2cnn(CC(=O)NC3CC3)c2)nc1NCc1cccc(F)c1F [Example I-341] | 1000 to 10000 nM | 10 to 100 nM
51 | Cc1cnc(Nc2cnn(C)c2)nc1NCc1c(F)ccc(F)c1F [Example I-420] | 100 to 1000 nM | 10 to 100 nM
52 | N#CCOc1cccc(CNc2nc(Nc3cnn(CC(=O)N4CCOCC4)c3)ncc2Cl)c1 [Example I-366] | 1000 to 10000 nM | 10 to 100 nM
53 | O=C(Cn1cc(Nc2nccc(NCc3c(F)cc(F)cc3F)n2)cn1)NCCO [Example I-89] | 1000 to 10000 nM | 10 to 100 nM
54 | N#Cc1cccc(CNc2nc(Nc3cnn(CCO)c3)ncc2F)c1 [Example I-167] | 1000 to 10000 nM | 10 to 100 nM
55 | Cn1cc(Nc2ncc(Cl)c(NCc3cc(OC(F)F)ccc3F)n2)cn1 [Example I-412] | 1000 to 10000 nM | 10 to 100 nM
56 | O=C(Cn1cc(Nc2ncc(Cl)c(NCc3cncc(F)c3)n2)cn1)N1CCOCC1 [Example I-339] | 100 to 1000 nM | 10 to 100 nM
57 | C[C@H](CO)NC(=O)Cn1cc(Nc2ncc(F)c(NCc3c(F)cc(F)cc3F)n2)cn1 [Example I-41] | 1000 to 10000 nM | 10 to 100 nM
58 | O=C(Cn1cc(Nc2nccc(NCc3c(F)cc(F)cc3F)n2)cn1)N1CCOCC1 [Example I-27] | 1000 to 10000 nM | 10 to 100 nM
59 | CC(C)NC(=O)Cn1cc(Nc2nccc(NCc3c(F)cncc3F)n2)cn1 [Example I-145] | > 10000 nM | ≤ 10 nM
60 | CNC(=O)Cn1cc(Nc2ncc(Cl)c(NCc3c(Cl)cccc3Cl)n2)cn1 [Example I-325] | 1000 to 10000 nM | 10 to 100 nM
61 | FCCn1cc(Nc2ncc(Cl)c(NCc3ccccc3)n2)cn1 [Example I-461] | 1000 to 10000 nM | 1000 to 10000 nM
62 | O=C(Cn1cc(Nc2ncc(Cl)c(NCc3c(F)ccc(F)c3F)n2)cn1)NC1CC1 [Example I-335] | 100 to 1000 nM | ≤ 10 nM
63 | CS(=O)(=O)c1ccc(F)cc1CNc1nc(Nc2cn[nH]c2)ncc1Cl [Example I-72] | 100 to 1000 nM | 10 to 100 nM
64 | COc1ccc(F)c(CNc2nc(Nc3cnn(CC(=O)NC(C)C)c3)ncc2F)c1F [Example I-48] | 1000 to 10000 nM | ≤ 10 nM
65 | CS(=O)(=O)c1ccccc1CNc1nc(Nc2cnn(CC(F)F)c2)ncc1Cl [Example I-471] | 1000 to 10000 nM | 1000 to 10000 nM
66 | Cc1cnc(Nc2cnn(CC(=O)N3CCOC(C)(C)C3)c2)nc1NCc1c(F)cc(F)cc1F [Example I-34] | 1000 to 10000 nM | ≤ 10 nM

Source: patent publication US9296725B2, “Heterocyclyl pyrimidine analogues as TYK2 inhibitors” (Cellzome Limited, priority 2012, dated 2016)
